What is called IC50 is the midpoint of a concentration-inhibition curve.

Data on 19 compounds can be found in patent publication US11591355B2 (Peloton Therapeutics, Inc., priority 2017, dated 2023).

The target of experiment [1] is T1, CD73 on U138 human neuroglioma cells (Homo sapiens, UniProt P21589).
T1 construct: U138 cells were obtained from ATCC and cultured in DMEM with 10% FBS; host or cells: U138 human neuroglioma cells
T1 sequence (P21589 27-549): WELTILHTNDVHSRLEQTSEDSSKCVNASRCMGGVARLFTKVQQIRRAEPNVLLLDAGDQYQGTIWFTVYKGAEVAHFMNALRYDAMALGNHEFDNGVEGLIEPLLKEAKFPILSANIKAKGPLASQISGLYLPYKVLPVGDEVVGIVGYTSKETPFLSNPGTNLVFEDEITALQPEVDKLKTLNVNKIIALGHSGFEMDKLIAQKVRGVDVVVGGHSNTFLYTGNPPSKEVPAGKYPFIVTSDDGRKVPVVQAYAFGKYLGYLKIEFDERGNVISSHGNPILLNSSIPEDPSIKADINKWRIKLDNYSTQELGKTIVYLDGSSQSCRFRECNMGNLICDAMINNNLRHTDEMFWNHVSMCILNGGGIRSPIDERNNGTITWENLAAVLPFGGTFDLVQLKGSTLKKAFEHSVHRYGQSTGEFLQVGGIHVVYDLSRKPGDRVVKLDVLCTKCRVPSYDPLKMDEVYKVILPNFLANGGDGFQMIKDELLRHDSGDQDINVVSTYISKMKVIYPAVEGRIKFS
Briefly: CD73 Cell-Based Assay. The settings on record: U138 cells, AMP substrate, 2 hours at 37° C., inorganic phosphate by malachite green. In outline:
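Whole U138 cells washed free of phosphate were incubated with 200 μM AMP (mixture concentration before equal-volume addition) plus compound in HEPES-buffered saline, pH 7.4, for 2 h at 37 °C, 5% CO2. Adenosine-forming activity read as inorganic phosphate released into supernatant by malachite green.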

The target in the next experiment is T2, Human CD73 (Homo sapiens, UniProt P21589).
T2 construct: purchased R&D Systems; host or cells: CHO cells
T2 sequence (P21589 27-549): T1 sequence (P21589 27-549)
Briefly: CD73 Enzyme Assay. The experiment is classed as biochemical. To be noted: 0.25 nM hCD73, 25 μM AMP, kinetic read at 360 nm; read-out: CD73 Enzyme Assay IC50.

`CC(O)COc1nc(NC2CCCC2)c2ccn([C@@H]3O[C@H](COCP(=O)(O)O)[C@@H](O)[C@H]3O)c2n1` (stereo partly drawn) [Compound 263, [(2R,3S,4R,5R)-5-[4-(cyclopentylamino)-2-(2-hydroxypropoxy)-pyrrolo[2,3-d]pyrimidin-7-yl]-3,4-dihydroxy-tetrahydrofuran-2-yl]-methoxymethylphos-phonic acid]: the 50% inhibitory concentration (IC50) (in experiment [1]; on Human CD73) was below 10 nM throughout.
As for `O=P(O)(O)COC[C@H]1O[C@@H](n2ccc3c(NC4CCCC4)nc(C#CC4CC4)nc32)[C@H](O)[C@@H]1O` [Compound 255, [(2R,3S,4R,5R)-5-[4-(cyclopentylamino)-2-(2-cyclopropyl-ethynyl)pyrrolo[2,3-d]-pyrimidin-7-yl]-3,4-dihydroxy-tetrahydro-furan-2-yl]methoxy-methylphosphonic acid], the IC50 (in experiment [1]; at Human CD73) was below 10 nM each time.
On to `Nc1nc(Cl)nc2c1ccn2[C@@H]1O[C@H](COCP(=O)(O)O)[C@@H](O)[C@H]1O` [Compound 86, [(2R,3S,4R,5R)-5-(4-amino-2-chloro-pyrrolo[2,3-d]-pyrimidin-7-yl)-3,4-dihydroxy-tetrahydro-furan-2-yl]methoxy-methylphosphonic acid], for which the concentration for half-maximal inhibition (IC50) (in experiment [1]; on Human CD73) was 100 to 1000 nM throughout.
Take `C[C@H](Nc1nc(C#N)nc2c1ccn2[C@@H]1O[C@H](COCP(=O)(O)O)[C@@H](O)[C@H]1O)c1ccc(F)cn1` [Compound 146]: the IC50 is 10 to 100 nM in experiment [1] and 100 to 1000 nM on Human CD73.
For `C[C@@H](Nc1nc(Cl)nc2c1ccn2[C@@H]1O[C@H](COCP(=O)(O)O)[C@@H](O)[C@H]1O)c1ccccc1F` [Compound 87, [(2R,3S,4R,5R)-5-[2-chloro-4-[[(1R)-1-(2-fluorophenyl)ethyl]-amino]pyrrolo[2,3-d]-pyrimidin-7-yl]-3,4-dihydroxy-tetrahydro-furan-2-yl]methoxy-methylphosphonic acid] the same measures were below 10 nM and below 10 nM.
The matching figures for `C[C@H](Nc1nc(C#N)nc2c1ccn2[C@@H]1O[C@H](COCP(=O)(O)O)[C@@H](O)[C@H]1O)c1ccc(C(F)(F)F)cc1` [Compound 147, [(2R,3S,4R,5R)-5-[2-cyano-4-[[(1S)-1-[4-(trifluoromethyl)-phenyl]ethyl]amino]-pyrrolo[2,3-d]-pyrimidin-7-yl]-3,4-dihydroxy-tetrahydro-furan-2-yl]methoxy-methylphosphonic acid]: below 10 nM and 10 to 100 nM.
For `C[C@@H](Nc1nc(Cl)nc2c1ncn2[C@@H]1O[C@H](COCP(=O)(O)O)[C@@H](O)[C@H]1O)c1ccccc1` [Compound 20, [(2R,3S,4R,5R)-5-[2-chloro-6-[[(1R)-1-phenylethyl]amino]-purin-9-yl]-3,4-dihydroxy-tetrahydro-furan-2-yl]methoxy-methylphosphonic acid] the same measures were 10 to 100 nM and 10 to 100 nM.
Take `CC(C)OC(=O)OCOP(=O)(O)COC[C@H]1O[C@@H](n2ccc3c(NC4CCCC4)nc(Cl)nc32)[C@H](O)[C@@H]1O` [Compound 193, [(2R,3S,4R,5R)-5-[2-chloro-4-(cyclopentyl-amino)pyrrolo[2,3-d]-pyrimidin-7-yl]-3,4-dihydroxy-tetrahydro-furan-2-yl]methoxy-methyl-(isopropoxy-carbonyloxymethoxy)-phosphinic acid]: the IC50 (in experiment [1]; at Human CD73) was 10 to 100 nM throughout.
As to `O=P(O)(O)COC[C@H]1O[C@@H](n2ccc3c(N[C@@H](CO)c4ccccc4)nc(Cl)nc32)[C@H](O)[C@@H]1O` [Compound 218, [(2R,3S,4R,5R)-5-[2-chloro-4-[[(1R)-2-hydroxy-1-phenyl-ethyl]amino]pyrrolo-[2,3-d]pyrimidin-7-yl]-3,4-dihydroxy-tetra-hydrofuran-2-yl]-methoxymethylphos-phonic acid], the IC50 (in experiment [1]; on Human CD73) was 10 to 100 nM throughout.
Consider `CC(C)(C)C(=O)OCOP(=O)(COC[C@H]1O[C@@H](n2ccc3c(NC4CCCC4)nc(Cl)nc32)[C@H](O)[C@@H]1O)OCOC(=O)C(C)(C)C` [Compound 187, [[(2R,3S,4R,5R)-5-[2-chloro-4-(cyclopentyl-amino)pyrrolo[2,3-d]-pyrimidin-7-yl]-3,4-dihydroxy-tetrahydro-furan-2-yl]methoxy-methyl-(2,2-dimethyl-propanoyloxymethoxy)-phosphoryl]oxymethyl 2,2-dimethylpropanoate], for which the concentration for half-maximal inhibition (IC50) (in experiment [1]; on Human CD73) was above 1000 nM each time.
On to `C[C@@H](c1ccccc1)N(C)c1nc(Cl)nc2c1ccn2[C@@H]1O[C@H](COCP(=O)(O)O)[C@@H](O)[C@H]1O` [Compound 131, [(2R,3S,4R,5R)-5-[2-chloro-4-[methyl-[(1S)-1-phenylethyl]-amino]pyrrolo[2,3-d]-pyrimidin-7-yl]-3,4-dihydroxy-tetrahydro-furan-2-yl]methoxy-methylphosphonic acid], for which the IC50 (in experiment [1]; at Human CD73) was below 10 nM throughout.
As to `CN(c1nc(Cl)nc2c1ccn2[C@@H]1O[C@H](COCP(=O)(O)O)[C@@H](O)[C@H]1O)C1CCCC1` [Compound 192, [(2R,3S,4R,5R)-5-[2-chloro-4-[cyclopentyl-(methyl)amino]pyrrolo-[2,3-d]pyrimidin-7-yl]-3,4-dihydroxy-tetra-hydrofuran-2-yl]-methoxymethylphos-phonic acid], the IC50 (in experiment [1]; at Human CD73) was below 10 nM in each case.
Take `N#Cc1nc(N2CC3CCCC3C2)c2ccn([C@@H]3O[C@H](CS(=O)(=O)CP(=O)(O)O)[C@@H](O)[C@H]3O)c2n1` (stereo partly drawn) [Compound 158, [(2S,3S,4R,5R)-5-[4-(3,3a,4,5,6,6a-hexa-hydro-1H-cyclopenta-[c]pyrrol-2-yl)-2-cyano-pyrrolo[2,3-d]-pyrimidin-7-yl]-3,4-dihydroxy-tetrahydro-furan-2-yl]methyl-sulfonylmethylphos-phonic acid]: the concentration for half-maximal inhibition (IC50) (in experiment [1]; on Human CD73) was below 10 nM throughout.
Regarding `O=P(O)(O)COC[C@H]1O[C@@H](n2ccc3c(N4CC5CC5C4)nc(Cl)nc32)[C@H](O)[C@@H]1O` (stereo partly drawn) [Compound 105, [(2R,3S,4R,5R)-5-[4-(3-azabicyclo[3.1.0]-hexan-3-yl)-2-chloro-pyrrolo[2,3-d]-pyrimidin-7-yl]-3,4-dihydroxy-tetrahydro-furan-2-yl]methoxy-methylphosphonic acid], the 50% inhibitory concentration (IC50) (in experiment [1]; on Human CD73) was below 10 nM each time.
`C[C@@H](Nc1nc(Cl)nc2c1ccn2[C@@H]1O[C@H](CS(=O)(=O)CP(=O)(O)O)[C@@H](O)[C@H]1O)c1ccccc1F` [Compound 168, [(2S,3S,4R,5R)-5-[2-chloro-4-[[(1R)-1-(2-fluorophenyl)ethyl]-amino]pyrrolo[2,3-d]-pyrimidin-7-yl]-3,4-dihydroxy-tetrahydro-furan-2-yl]methyl-sulfonylmethylphos-phonic acid]: the IC50 (in experiment [1]; at Human CD73) was below 10 nM in each case.
Take `C[C@H](Nc1nc(C#N)nc2c1ncn2[C@@H]1O[C@H](COCP(=O)(O)O)[C@@H](O)[C@H]1O)c1ccccc1` [Compound 36, [(2R,3S,4R,5R)-5-[2-cyano-6-[[(1S)-1-phenylethyl]amino]purin-9-yl]-3,4-dihydroxy-tetrahydrofuran-2-yl]methoxymethylphosphonic acid; 2,2,2-trifluoroacetic acid]: the concentration for half-maximal inhibition (IC50) (in experiment [1]; at Human CD73) was 10 to 100 nM throughout.
As for `C[C@H](c1ccccc1)N(C)c1nc(Cl)nc2c1ccn2[C@@H]1O[C@H](COCP(=O)(OCOC(=O)C(C)(C)C)OCOC(=O)C(C)(C)C)[C@@H](O)[C@H]1O` [Compound 133, ((((((2R,3S,4R,5R)-5-(2-chloro-4-(methyl((R)-1-phenylethyl)amino)-7H-pyrrolo[2,3-d]pyrimidin-7-yl)-3,4-dihydroxytetrahydrofuran-2-yl)methoxy)methyl)phosphoryl)bis(oxy))bis(methylene) bis(2,2-dimethylpropanoate)], the IC50 (in experiment [1]; at Human CD73) was above 1000 nM throughout.
On to `CC(C)(C)C(=O)OCOP(=O)(O)COC[C@H]1O[C@@H](n2ccc3c(NC4CCCC4)nc(Cl)nc32)[C@H](O)[C@@H]1O` [Compound 188, [(2R,3S,4R,5R)-5-[2-chloro-4-(cyclopentyl-amino)pyrrolo[2,3-d]-pyrimidin-7-yl]-3,4-dihydroxy-tetrahydro-furan-2-yl]methoxy-methyl-(2,2-dimethyl-propanoyloxymethoxy)-phosphinic acid], for which the IC50 was 100 to 1000 nM in experiment [1] and below 10 nM at Human CD73.
In the case of `C[C@H](Nc1nc(Cl)nc2c1ccn2[C@@H]1O[C@H](COCP(=O)(O)O)[C@@H](O)[C@H]1O)c1ccc(C#N)cc1` [Compound 117, [(2R,3S,4R,5R)-5-[2-chloro-4-[[(1S)-1-(4-cyanophenyl)ethyl]-amino]pyrrolo[2,3-d]-pyrimidin-7-yl]-3,4-dihydroxy-tetrahydro-furan-2-yl]methoxy-methylphosphonic acid], the IC50 was below 10 nM in experiment [1] and 10 to 100 nM on Human CD73.
